# Source: patent US9708331B2, “Metabotrophic glutamate receptor 5 modulators and methods of use thereof” (SUNOVION PHARMACEUTICALS INC., priority 2011, dated 2017)
# pEC50: −log10 of the molar value.
# Target: mGluR5 (Homo sapiens, UniProt P41594)
# Test: mGluR5 PAM EC50 (positive allosteric modulator potency)
# Type: cell-based
# mGluR5, sequence (P41594 21-1212): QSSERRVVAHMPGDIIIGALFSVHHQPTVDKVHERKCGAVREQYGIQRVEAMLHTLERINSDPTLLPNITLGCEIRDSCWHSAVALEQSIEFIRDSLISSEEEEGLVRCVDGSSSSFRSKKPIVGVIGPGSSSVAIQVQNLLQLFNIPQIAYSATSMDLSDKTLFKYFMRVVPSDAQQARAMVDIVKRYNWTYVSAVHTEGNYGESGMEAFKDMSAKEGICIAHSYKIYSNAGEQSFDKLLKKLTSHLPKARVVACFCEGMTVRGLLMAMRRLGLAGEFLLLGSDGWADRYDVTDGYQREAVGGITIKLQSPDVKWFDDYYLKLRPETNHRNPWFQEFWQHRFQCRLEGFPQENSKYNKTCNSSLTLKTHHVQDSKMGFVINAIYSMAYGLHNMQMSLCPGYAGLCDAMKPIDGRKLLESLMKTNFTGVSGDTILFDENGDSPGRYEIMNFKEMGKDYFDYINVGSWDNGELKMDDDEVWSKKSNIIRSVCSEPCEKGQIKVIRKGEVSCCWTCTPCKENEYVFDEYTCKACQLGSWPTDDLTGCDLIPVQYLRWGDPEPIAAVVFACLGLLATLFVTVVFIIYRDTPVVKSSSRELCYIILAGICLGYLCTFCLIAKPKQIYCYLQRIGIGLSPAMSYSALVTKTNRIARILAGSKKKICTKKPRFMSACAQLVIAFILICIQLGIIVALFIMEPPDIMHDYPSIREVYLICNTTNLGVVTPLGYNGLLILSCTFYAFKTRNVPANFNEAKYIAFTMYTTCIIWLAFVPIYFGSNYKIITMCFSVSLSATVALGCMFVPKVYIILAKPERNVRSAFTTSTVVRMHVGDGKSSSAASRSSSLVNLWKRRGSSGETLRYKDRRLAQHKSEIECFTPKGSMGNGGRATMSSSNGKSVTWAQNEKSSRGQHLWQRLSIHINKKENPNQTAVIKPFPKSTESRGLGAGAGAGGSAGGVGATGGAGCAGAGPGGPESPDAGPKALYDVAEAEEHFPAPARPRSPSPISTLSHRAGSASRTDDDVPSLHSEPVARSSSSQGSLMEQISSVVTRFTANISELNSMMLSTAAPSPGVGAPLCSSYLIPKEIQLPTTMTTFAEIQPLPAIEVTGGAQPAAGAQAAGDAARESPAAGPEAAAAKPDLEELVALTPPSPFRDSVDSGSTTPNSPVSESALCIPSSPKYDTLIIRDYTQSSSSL
row,pEC50,Compound
1,7.00 to 7.52,"CC1(C)CCn2c(nc3cc(C#Cc4ccccn4)c(F)cc3c2=O)C1 [Example 2.31a, 2-fluoro-7,7-dimethyl-3-(pyridin-2-ylethynyl)-8,9-dihydro-6H-pyrido[2,1-b]quinazolin-11(7H)-one]"
2,7.52 to 8.00,"C=CC1(F)CCc2nc3cc(C#Cc4ccccn4)ccc3c(=O)n2C1 (centres unmarked) [Example 2.38, 8-fluoro-3-(pyridin-2-ylethynyl)-8-vinyl-8,9-dihydro-6H-pyrido[2,1-b]quinazolin-11(7H)-one]"
3,7.52 to 8.00,"CC1(C)CCc2nc3cc(C#Cc4ccc(C#N)cn4)ccc3c(=O)n2C1 [Example 2.39, 6-((8,8-dimethyl-11-oxo-7,8,9,11-tetrahydro-6H-pyrido[2,1-b]quinazolin-3-yl)ethynyl)nicotinonitrile]"
4,7.00 to 7.52,"COc1ccc(C#Cc2ccc3c(=O)n4c(nc3c2)CCC(C)(C)C4)nc1 [Example 2.40, 3-((5-methoxypyridin-2-yl)ethynyl)-8,8-dimethyl-8,9-dihydro-6H-pyrido[2,1-b]quinazolin-11(7H)-one]"
5,7.52 to 8.00,"Cc1cc(C#Cc2ccc3c(=O)n4c(nc3c2)CCC(C)(C)C4)ccn1 [Example 2.46, 8,8-dimethyl-3-((2-methylpyridin-4-yl)ethynyl)-8,9-dihydro-6H-pyrido[2,1-d]quinazolin-11(7H)-one]"
6,> 8.00,"Cc1cnc(C#Cc2ccc3c(=O)n4c(nc3c2)CCC(C)(C)C4)s1 [Example 2.50, 8,8-dimethyl-3-((5-methylthiazol-2-yl)ethynyl)-8,9-dihydro-6H-pyrido[2,1-b]quinazolin-11(7H)-one]"
7,> 8.00,"Cc1cc(C#Cc2ccc3c(=O)n4c(nc3c2)CCC(C)(C)C4)sn1 [Example 2.51, 8,8-dimethyl-3-((3-methylisothiazol-5-yl)ethynyl)-8,9-dihydro-6H-pyrido[2,1-b]quinazolin-11(7H)-one]"
8,7.00 to 7.52,"CC1(C)CCc2nc3cc(C#Cc4ncc(F)cn4)ccc3c(=O)n2C1 [Example 2.54, 3-((5-fluoropyrimidin-2-yl)ethynyl)-8,8-dimethyl-8,9-dihydro-6H-pyrido[2,1-b]quinazolin-11(7H)-one]"
9,7.52 to 8.00,"CC1(C)CCc2nc3cc(C#Cc4ccccc4F)ccc3c(=O)n2C1 [Example 2.73, 3-((2-fluorophenyl)ethynyl)-8,8-dimethyl-8,9-dihydro-6H-pyrido[2,1-b]quinazolin-11(7H)-one]"
10,7.52 to 8.00,"CC1(C)CCc2nc3cc(C#Cc4ccc(F)cc4)ccc3c(=O)n2C1 [Example 2.75, 3-((4-fluorophenyl)ethynyl)-8,8-dimethyl-8,9-dihydro-6H-pyrido[2,1-b]quinazolin-11(7H)-one]"
11,> 8.00,"CC1(C)CCc2nc3cc(C#Cc4ncccc4F)ccc3c(=O)n2C1 [Example 2.86, 3-((3-fluoropyridin-2-yl)ethynyl)-8,8-dimethyl-8,9-dihydro-6H-pyrido[2,1-b]quinazolin-11(7H)-one]"
12,> 8.00,"CC1(C)CCc2nc3cc(C#Cc4cccnc4F)ccc3c(=O)n2C1 [Example 2.87, 3-((2-fluoropyridin-3-yl)ethynyl)-8,8-dimethyl-8,9-dihydro-6H-pyrido[2,1-b]quinazolin-11(7H)-one]"
13,> 8.00,"CC1(C)CCc2nc3cc(C#Cc4ccc(F)nc4)ccc3c(=O)n2C1 [Example 2.88, 3-((6-fluoropyridin-3-yl)ethynyl)-8,8-dimethyl-8,9-dihydro-6H-pyrido[2,1-b]quinazolin-11(7H)-one]"
14,> 8.00,"CC1(C)CCc2nc3cc(C#Cc4cncc(F)c4)ccc3c(=O)n2C1 [Example 2.89, 3-((5-fluoropyridin-3-yl)ethynyl)-8,8-dimethyl-8,9-dihydro-6H-pyrido[2,1-b]quinazolin-11(7H)-one]"
15,> 8.00,"CC1(C)CCc2nc3cc(C#Cc4cnccc4F)ccc3c(=O)n2C1 [Example 2.90, 3-((4-fluoropyridin-3-yl)ethynyl)-8,8-dimethyl-8,9-dihydro-6H-pyrido[2,1-b]quinazolin-11(7H)-one]"
16,> 8.00,"CC1(C)CCc2nc3cc(C#Cc4ccncc4F)ccc3c(=O)n2C1 [Example 2.91, 3-((3-fluoropyridin-4-yl)ethynyl)-8,8-dimethyl-8,9-dihydro-6H-pyrido[2,1-b]quinazolin-11(7H)-one]"
17,> 8.00,"CC1(C)CCc2nc3cc(C#Cc4ccnc(F)c4)ccc3c(=O)n2C1 [Example 2.92, 3-((2-fluoropyridin-4-yl)ethynyl)-8,8-dimethyl-8,9-dihydro-6H-pyrido[2,1-b]quinazolin-11(7H)-one]"
18,7.00 to 7.52,"CC1(CO)CCc2nc3cc(C#Cc4ccccn4)ccc3c(=O)n2C1 (centres unmarked) [Example 2.99, 8-(hydroxymethyl)-8-methyl-3-(pyridin-2-ylethynyl)-8,9-dihydro-6H-pyrido[2,1-b]quinazolin-11(7H)-one]"
19,6.52 to 7.00,"O=c1c2ccc(C#Cc3ccccn3)cc2nc2n1CCC1(CO)CC21 (centres unmarked) [Example 2.103, 1a-(hydroxymethyl)-8-(pyridin-2-ylethynyl)-1,2,3,10b-tetrahydrocyclopropa[3,4]pyrido [2,1-b]quinazolin-5(1aH)-one]"

row,pEC50,Compound
1,7.00 to 7.52,"O=c1c2ccc(C#Cc3ccccn3)cc2nc2n1C[C@H]1CCCN1C2 [Example 2.104, (R)-8-(pyridin-2-ylethynyl)-2,3,13,13a-tetrahydro-1H-pyrrolo[1′,7′:4,5]pyrazino[2,1-b]quinazolin-11(5H)-one]"
2,7.52 to 8.00,"N#Cc1ccnc(C#Cc2ccc3c(=O)n4c(nc3c2)CCCCC4)c1 [Example 3.5, 2-((12-oxo-6,7,8,9,10,12-hexahydroazepino[2,1-b]quinazolin-3-yl)ethynyl)isonicotinonitrile]"
3,6.52 to 7.00,"O=c1c2ccc(C#Cc3ccccn3)cc2nc2n1CCN1CCC2C1 (centres unmarked) [Example 3.6, 9-(pyridin-2-ylethynyl)-1,2,5,6-tetrahydro-3,6-methano[1,4]diazocino[8,1-b]quinazolin-12(4H)-one]"
4,7.00 to 7.52,"O=c1c2ncc(C#Cc3ccccn3)cc2nc2n1CCCC(C(F)(F)F)C2 (centres unmarked) [Example 3.8, 3-(pyridin-2-ylethynyl)-7-(trifluoromethyl)-7,8,9,10-tetrahydropyrido[3′,2′:4,5]pyrimido [1,2-a]azepin-12(6H)-one]"
5,6.52 to 7.00,"O=c1c2ncc(C#Cc3ccccn3)cc2nc2n1CCC(F)(F)CC2 [Example 3.16, 8,8-difluoro-3-(pyridin-2-ylethynyl)-7,8,9,10-tetrahydropyrido[3′,2′:4,5]pyrimido [1,2-a]azepin-12(6H)-one]"
6,7.52 to 8.00,"CCC1(F)CCc2nc3cc(C#Cc4ccccn4)ccc3c(=O)n2CC1 (centres unmarked) [Example 3.17, 8-ethyl-8-fluoro-3-(pyridin-2-ylethynyl)-7,8,9,10-tetrahydroazepino[2,1-b]quinazolin-12(6H)-one]"
7,7.00 to 7.52,"CCC1(F)CCc2nc3cc(C#Cc4ccccn4)cnc3c(=O)n2CC1 (centres unmarked) [Example 3.18, 8-ethyl-8-fluoro-3-(pyridin-2-ylethynyl)-7,8,9,10-tetrahydropyrido[3′,2′:4,5]pyrimido [1,2-a]azepin-12(6H)-one]"
8,7.00 to 7.52,"CC1CCc2nc3cc(C#Cc4cc(C#N)ccn4)ccc3c(=O)n2CC1 (centres unmarked) [Example 3.19, 2-((8-methyl-12-oxo-6,7,8,9,10,12-hexahydroazepino[2,1-b]quinazolin-3-yl)ethynyl)isonicotinonitrile]"
9,7.00 to 7.52,"Cc1cc(C#Cc2ccccn2)cc2nc3n(c(=O)c12)CCC(C)CC3 (centres unmarked) [Example 3.22, 1,8-dimethyl-3-(pyridin-2-ylethynyl)-7,8,9,10-tetrahydroazepino[2,1-b]quinazolin-12(6H)-one]"
10,6.52 to 7.00,"COC1CCc2nc3cc(C#Cc4ccccn4)cnc3c(=O)n2CC1 (centres unmarked) [Example 3.23, 8-methoxy-3-(pyridin-2-ylethynyl)-7,8,9,10-tetrahydropyrido[3′,2′:4,5]pyrimido [1,2-a]azepin-19(6H)-one]"
11,6.52 to 7.00,"CC1(F)CCCc2nc3cc(C#Cc4ccccn4)cnc3c(=O)n2C1 (centres unmarked) [Example 3.25, 9-fluoro-9-methyl-3-(pyridin-2-ylethynyl)-7,8,9,10-tetrahydropyrido[3′,2′:4,5]pyrimido [1,2-a]azepin-12(6H)-one]"
12,7.00 to 7.52,"O=c1c2ncc(C#Cc3ccccn3)cc2nc2n1CC(F)(F)CCC2 [Example 3.26, 9,9-difluoro-3-(pyridin-2-ylethynyl)-7,8,9,10-tetrahydropyrido[3′,2′:4,5]pyrimido [1,2-a]azepin-12(6H)-one]"
13,7.00 to 7.52,"O=c1c2ccc(C#Cc3ccccn3)cc2nc2n1CC1CC(F)(F)CN1CC2 (centres unmarked) [Example 3.33a, 2,2-difluoro-9-(pyridin-2-ylethynyl)-2,3,5,6,14,14a-hexahydropyrrolo[2′,1′:3,4][1,4] diazepino[7,1-b]quinazolin-12(1H)-one]"
14,6.00 to 6.52,"CC12CCCN1CCc1nc3cc(C#Cc4ccccn4)ccc3c(=O)n1C2 (centres unmarked) [Example 3.34, 14a-methyl-9-(pyridin-2-ylethynyl)-2,3,5,6,14,14a-hexahydropyrrolo[2′,1′:3,4][1,4] diazepino[7,1-b]quinazolin-12(1H)-one]"
15,7.52 to 8.00,"O=c1c2ccc(C#Cc3ccccn3)cc2nc2n1CC1(CCC2)COC1 [Example 3.38, 3-(pyridin-2-ylethynyl)-7,8-dihydro-6H-spiro[azepino[2,1-b]quinazoline-9,3′-oxetan]-12(10H)-one]"
16,7.00 to 7.52,"CC1(C)C=Cc2nc3cc(C#Cc4ccccn4)ccc3c(=O)n2CC1 [Example 3.42, 8,8-dimethyl-3-(pyridin-2-ylethynyl)-9,10-dihydroazepino[2,1-b]quinazolin-12(8H)-one]"
17,6.00 to 6.52,"CC1(C)CCn2c(nc3cc(/C=C/c4cc(C#N)ccn4)ccc3c2=O)C1 [Example 4.1a, (E)-2-(2-(7,7-dimethyl-11-oxo-7,8,9,11-tetrahydro-6H-pyrido[2,1-b]quinazolin-3-yl)vinyl)isonicotinonitrile]"
18,6.00 to 6.52,"CC1(C)CCc2nc3cc(/C=C/c4cc(C#N)ccn4)ccc3c(=O)n2C1 [Example 4.1b, (E)-2-(2-(8,8-dimethyl-11-oxo-7,8,9,11-tetrahydro-6H-pyrido[2,1-b]quinazolin-3-yl)vinyl)isonicotinonitrile]"
19,7.52 to 8.00,"Cc1csc(/C=C/c2ccc3c(=O)n4c(nc3c2)CCC(C)(C)C4)n1 [Example 4.3, (E)-8,8-dimethyl-3-(2-(4-methylthiazol-2-yl)vinyl)-8,9-dihydro-6H-pyrido[2,1-b]quinazolin-11(7H)-one]"
